This is an account of results in patent US12318402B2, “Composition for treating or preventing colitis by NAMPT metabolic regulation” (AJOU UNIVERSITY INDUSTRY-ACADEMIC COOPERATION FOUNDATION, priority 2021, dated 2025).

The test system of one series is RAW264.7 cells. Description: pHrodo green phagocytosis assay in RAW264.7 cells. In kind it is cell-based. Particulars: FIG. 10C, 10D, 11D. The method, then: (§1) pHrodo™ green-conjugated E. coli Bioparticles™ were diluted in serum medium, incubated for 30 minutes and washed twice with PBS. Cells were incubated for the time indicated in the manufacturer's instructions and analyzed using a FACS Canto II flow cytometer (BD) or fluorescence microscope (DFC3000G; Leica, Wetzlar, Germany).
(§2) Pulse and chase phagocytosis assays were performed using pHrodo green to compare phagocytic activity between macrophages of WT and KO mice. In FIG. 11A, there was an increase in the intensity of the green fluorescence signal in the BMDM of WT mice, indicating the gradual maturation and fusion of phagosomes containing pHrodo green with lysosomes.

In series [1] the test system is BMDM. Description: M1/M2 macrophage polarization of BMDM (FACS, Western blot). In kind it is cell-based, mouse. The protocol: The cell suspension of Example 4 was stained with various combinations of fluorochrome-conjugated antibodies on ice for 20 minutes under dark conditions, wherein the antibodies included anti-CD45 (30-F11), anti-CD1 lb (M1/70), anti-F4/80 (BM8), anti-Ly6G (1A8), anti-Ly6C (HK1.4), anti-MHC II (M5/114.15.2), anti-CD11c (N418), anti-CD206 (MMR) and anti-CD86 (GL-1) (all purchased from Biolegend, San Diego, CA, USA). Samples were obtained from the FACS Canto II Flow Cytometer (BD, Franklin Lakes, NJ, USA). Data were analyzed using FlowJo™ Software (BD).
Next, it was determined whether NAMPT is involved in the polarization of M1 and M2 macrophages.

For series [2], the system named is BMDM. Description: NADPH level measurement in macrophages (BMDM). Type of series: cell-based, mouse. The protocol:
(§3) Bone marrow derived macrophages (hereinafter referred to as BMDM) were harvested, and according to the manufacturer's instructions, EnzyChrom NAD^+/NADHA assay Kit (Bioassay Systems, Hayward, CA, USA), Elite NADPH Assay Kit (eEnzyme, Gaithersburg, MD, USA) and Cell Titer-Glo® Luminescent Cell Viability assay (Promega, Madison, WI, USA) were used for analysis.
(§4) Since NAD^+ is an important cofactor in ATP production, ATP levels were measured during LPS treatment. […] However, the NADPH level in NAMPT-depleted macrophages was reduced by 21%.

Series [3] has as its system BMDM. The experiment in a line: pHrodo green E. coli Bioparticles phagocytosis assay in BMDM. In kind it is cell-based, mouse. Particulars: for pHrodo intensity: BMDM of WT mice, FIG. 10B, 10D, 11B-11D. The method, then:
as §1, §2

In a further series the test system is Raw 264.7 cells. Description: ROS measurement in Raw 264.7 cells upon LPS. In kind it is cell-based. Particulars: FIG. 10H.
Series [4] has as its system BMDM. Description: NAD+ level measurement in BMDM. In kind it is cell-based, mouse. The method, then: as §3, §4
For series [5] the following is noted: mouse, in vivo.
Source text: It was further elucidated whether there was any clear cytotoxic effect by NMN injection in mice.
In another series the test system is DSS-induced colitis. Description: DSS-induced colitis model in NAMPT KO mice with NMN administration. Type of series: in vivo, mouse. The source says:
Nampt^f/f mice (C57BL6), which have two loxP sites adjacent to exon 5, were crossed with LyzM-Cre mice (C57BL6) to specifically knock out (KO) NAMPT in myeloid cell lineages including macrophages (Nampt^f/fLyzMCre^+/− mice; hereinafter referred to as KO mice). KO mice (heterozygous) were used as mice knocked out of bone marrow-specific NAMPT, and Nampt^f/f mice (wild type; hereinafter referred to as WT mice) were used as controls. The mice were stored at the Ajou University Laboratory Animal Research Center and preserved according to the guidelines of the Institution's Animal Care and Use Committee, which approved all animal procedures (2020-0013).
Age- and gender-matched WT mice and KO mice were administered with 2.5% DSS (MP Biomedicals, Santa Ana, CA, USA) for 7 days and then allowed to recover for 7 days. Colitis severity was determined daily through a scoring system based on the sum of scores for the following parameters: weight loss (0 points=no weight loss/weight gain, 1=5 to 10% weight loss, 2=11 to 15% weight loss, 3=16 to 20% weight loss, and 4=21% or more weight loss); stool consistency (score of 0=normal and well formed, 2=very soft and not formed, and 4=loose stool); and hemorrhagic stool score (0=normal colored stool, 2=red colored stool, 4=bloody stool). The disease activity index (DAI) ranged from 0 to 12.
Histology was scored blindly using a semi-quantitative scoring system based on the sum of scores for the following parameters: presence of ulceration: 0=none, 1=present but very slight, 2=minimal, 3=moderate, 4=widespread; presence of inflammation: 0=none, 1=minimal, 2=mild, 3=moderate, 4=severe; degree of inflammation: 0=none, 1=mucosal, 2=mucosal+submucosal, 3=mucosal+submucosal+muscle penetration, 4=full thickness invasion. Immunohistochemistry was performed using rabbit anti-NAMPT (Bethyl Laboratories, TX, USA), rabbit anti-Ki-67 (Abcam, Cambridge, UK), rabbit anti-cleaved caspase 3 (Cell Signaling Technology), mouse anti-CD326 (EpCAM)-APC (Invitrogen) and mouse anti-F4/80 (Abcam) antibodies.
Apoptosis was assessed by the TUNEL assay using the Apoptag plus in situ apoptosis fluorescein detection kit (Merck) according to the manufacturer's instructions. TUNEL positive signals were corrected to total nuclear signals for each field. The phagocytic cells were stained using the Apoptag ISOL dual fluorescence apoptosis detection kit (Millipore) according to the manufacturer's instructions. The stained samples were then incubated overnight with mouse anti-F4/80 antibodies. Fluorescence images were obtained by a confocal microscope (A1R HD25, Nikon, Tokyo, Japan) and a slide scanner (Axioscan, Zeiss, Germany).

The next series has as its system BMDMs. Description: ROS measurement in LPS- and IFN-γ-activated BMDMs. In kind it is cell-based, mouse. Particulars: FIG. 13B. The method, then: BMDM or peritoneal macrophages were incubated with HBSS containing 5 μM CM-H2DCFDA (Invitrogen, Carlsbad, CA, USA) for 15 min at 37° C. To measure mitochondrial reactive oxygen species levels, cells were incubated with 5 μM MitoSOX (Invitrogen) for 15 minutes. FACS Canto II (BD) was used to monitor fluorescence levels.

Setting [6] is: macrophages of KO mice, NMN with/without 6AN, FIG. 12I.
The mark [7] stands for this setting: NAMPT KO mice, 2.5% DSS, 500 mg/kg i.p.

The structures appear in SMILES notation.

For the molecule `O=C(/C=C/c1cccnc1)NCCCCC1CCN(C(=O)c2ccccc2)CC1` [FK866], the pHrodo intensity result is recorded as “reduced pHrodo intensity” in the series with RAW264.7 cells and “decreased” with BMDM [3]. Moreover, in the series on BMDM [1] (BMDM treated with LPS/IFN-γ or IL-4, FACS, FIG. 7A, 7B), the “polarization of M1 and M2 macrophages” value was “did not result in polarization of M1 and M2 macrophages”. In addition, in the series with BMDM [1] (Western blot, FIG. 7D), the “expression of M1 and M2 macrophage-specific markers” value is recorded as “did not affect”. In the series on BMDM [2] (in LPS treatment, FIG. 12G), the NADPH levels result was “further decrease in NADPH levels”. Also, in the series on Raw 264.7 cells (response to LPS), the ROS production result is “partially inhibited”. Also, the “NAD+ levels” value was “significantly reduced” in the series on BMDM [4] (FIG. 12B) and “further decrease” in the series with BMDM [4] (LPS treatment).
For `NC(=O)c1ccc[n+]([C@@H]2O[C@H](COP(=O)([O-])O)[C@@H](O)[C@H]2O)c1` [NMN, nicotinamide mononucleotide], in series [5], the “abnormalities in the colon, liver and spleen at the microscopic level” value was “no abnormalities”; the “serum ALT level” value is “similar”; the “serum AST level” value is given as “similar”. In addition, the NADPH levels result in the series on BMDM [2] (in LPS treatment, FIG. 12G) is “increased NADPH levels”. The NADPH levels result in the series on BMDM [2] (setting [6]) is reported as “restored NADPH levels”. In the series on BMDM [2] (macrophages of KO mice, FIG. 12D, 12E), the NADPH levels entry is listed as “increased NADPH levels”. Also, in the series with BMDM [3] (BMDM of KO mice), the pHrodo fluorescence intensity entry is recorded as “restored fluorescence intensity”. In the series on DSS-induced colitis (NAMPT KO mice, 2.5% DSS, 500 mg/kg NMN i.p. 3 times a week, 8 out of 12), this molecule registered a survival of 67%. Besides, in the series with DSS-induced colitis (setting [7]), the DAI entry was “restored” and the weight loss result is “restored”. In the series on DSS-induced colitis (colon tissue, FIG. 14F), the “F4/80+ macrophage population” value is given as “decrease”, the “Ki-67+ cells” value is “increased”, the “positive signals of TUNEL” value was “decreased” and the “positive signals of cleaved caspase 3” value is “decreased”. For the same molecule, the “NAD+ levels” value in the series with BMDM [4] (after NAMPT knock out or FK866 treatment, FIG. 12B) was “restored the phenotype”.
On to `CO/C1=C\C(C)=C\[C@@H](C)[C@@H](O)[C@@H](C)C/C(C)=C/C=C/[C@H](OC)[C@@H]([C@@H](C)[C@@H](O)[C@H](C)[C@@]2(O)C[C@@H](O)[C@H](C)[C@@H](C(C)C)O2)OC1=O` [Baf A1, bafilomycin A1], for which the pHrodo intensity entry with RAW264.7 cells and in the series on BMDM [3] was “reduced the fluorescence intensity” throughout.
As to `NC(=O)c1ccc(N)nc1` [6AN, 6-aminonicotinamide], the ROS levels result in the series with BMDMs is recorded as “decrease in ROS levels”. The NADPH levels entry is listed as “further reduced NADPH levels” in the series on BMDM [2] (6AN during LPS challenge, FIG. 12J); “blocked” with BMDM [2] (setting [6]); “reduced NADPH levels in a dose-dependent manner” in the series on BMDM [2] (macrophages of WT mice, FIG. 12H).
Turning to `NC(=O)c1ccc[n+]([C@@H]2O[C@H](COP(=O)([O-])OP(=O)(O)OC[C@H]3O[C@@H](n4cnc5c(N)ncnc54)[C@H](O)[C@@H]3O)[C@@H](O)[C@H]2O)c1` [NAD^+, nicotinamide adenine dinucleotide], the “inhibitory effect of FK866 on ROS production” value in the series with Raw 264.7 cells (LPS, FK866, NAD+ co-treatment) is on record as “recovered”.
